According to patent US20180317484A1 (priority 2017, published 2018):

Tested on: Aspergillus flavus
Test: microbe, parasite or virus in culture
Type: cell-based

Row | Compound | inhibition at 50 µg/mL (Aspergillus flavus, 168 h, read-out: percentage of inhibition of growth of the fungi (Aspergillus flavus)) | effect on growth of the fungi, in words
1 | c1coc(-c2nc3ccccc3[nH]2)c1 [FBD, 2-(2-Furyl)benzimidazole] | 100% | 
2 | O=[N+]([O-])c1ccc2nc(-c3ccco3)[nH]c2c1 [6-NFBD, 2-(2-Furyl)-6-nitrobenzimidazole] |  | does not inhibit the growth
3 | NC(=NO)c1ccc2nc(-c3ccco3)[nH]c2c1 [6-AFBD, 2-(2-Furyl) benzimidazole-6-carboxamidoxime] |  | does not inhibit the growth
4 | O=C(O)c1ccc2nc(-c3ccco3)[nH]c2c1 [6-CAFBD, 2-(2-Furyl) benzimidazole-6-carboxylic acid] |  | does not inhibit the growth
